Values after ≈ are worked out from the molar mass of the structure shown.
system: Escherichia coli; experiment: In vitro antimicrobial activity against Escherichia coli TEM; type: functional; details: not given

SMILES | MIC [µg/mL]
CO/N=C(/C(=O)NC1C(=O)N2C(C(=O)[O-])=C(C[n+]3cccc4c3CCC4)CSC12)c1csc(N)n1 (stereo unspecified) | 0.049 (≈ 0.0952 µM)

system: Pseudomonas aeruginosa; experiment: In vitro antimicrobial activity against Pseudomonas aeruginosa 1592 E; type: functional; details: not given

SMILES | MIC [µg/mL]
CO/N=C(/C(=O)NC1C(=O)N2C(C(=O)[O-])=C(C[n+]3cccc4c3CCC4)CSC12)c1csc(N)n1 (stereo unspecified) | 1.56 (≈ 3.04 µM)

system: Enterobacter cloacae; experiment: In vitro antimicrobial activity against Enterobacter cloacae P99; type: functional; details: not given

SMILES | MIC [µg/mL]
CO/N=C(/C(=O)NC1C(=O)N2C(C(=O)[O-])=C(C[n+]3cccc4c3CCC4)CSC12)c1csc(N)n1 (stereo unspecified) | 3.12 (≈ 6.07 µM)

system: Staphylococcus aureus; experiment: In vitro antimicrobial activity against Methicillin resistant Staphylococcus aureus (MRSA); type: functional; details: not given

SMILES | MIC [µg/mL]
CO/N=C(/C(=O)NC1C(=O)N2C(C(=O)[O-])=C(C[n+]3cccc4c3CCC4)CSC12)c1csc(N)n1 (stereo unspecified) | 25 (≈ 48.6 µM)

system: Pseudomonas aeruginosa; experiment: In vitro antimicrobial activity against Pseudomonas aeruginosa 9027; type: functional; details: not given

SMILES | MIC [µg/mL]
CO/N=C(/C(=O)NC1C(=O)N2C(C(=O)[O-])=C(C[n+]3cccc4c3CCC4)CSC12)c1csc(N)n1 (stereo unspecified) | 3.12 (≈ 6.07 µM)

system: Pseudomonas aeruginosa; experiment: In vitro antimicrobial activity against Pseudomonas aeruginosa 1771; type: functional; details: not given

SMILES | MIC [µg/mL]
CO/N=C(/C(=O)NC1C(=O)N2C(C(=O)[O-])=C(C[n+]3cccc4c3CCC4)CSC12)c1csc(N)n1 (stereo unspecified) | 0.781 (≈ 1.52 µM)

system: Streptococcus pyogenes; experiment: Compound has been evaluated for in vitro antimicrobial activity against Streptococcus pyogenes A 308; type: functional; details: not given

SMILES | MIC [µg/mL]
CO/N=C(/C(=O)NC1C(=O)N2C(C(=O)[O-])=C(C[n+]3cccc4c3CCC4)CSC12)c1csc(N)n1 (stereo unspecified) | 0.007 (≈ 0.0136 µM)

system: Staphylococcus aureus; experiment: In vitro antimicrobial activity against Staphylococcus aureus 503; type: functional; details: not given

SMILES | MIC [µg/mL]
CO/N=C(/C(=O)NC1C(=O)N2C(C(=O)[O-])=C(C[n+]3cccc4c3CCC4)CSC12)c1csc(N)n1 (stereo unspecified) | 0.098 (≈ 0.19 µM)

system: Pseudomonas aeruginosa; experiment: In vitro antimicrobial activity against Pseudomonas aeruginosa 1771 M; type: functional; details: not given

SMILES | MIC [µg/mL]
CO/N=C(/C(=O)NC1C(=O)N2C(C(=O)[O-])=C(C[n+]3cccc4c3CCC4)CSC12)c1csc(N)n1 (stereo unspecified) | 0.195 (≈ 0.379 µM)

system: Streptococcus pyogenes; experiment: In vitro antimicrobial activity against Streptococcus pyogenes 77A; type: functional; details: not given

SMILES | MIC [µg/mL]
CO/N=C(/C(=O)NC1C(=O)N2C(C(=O)[O-])=C(C[n+]3cccc4c3CCC4)CSC12)c1csc(N)n1 (stereo unspecified) | 0.007 (≈ 0.0136 µM)

system: Staphylococcus aureus; experiment: In vitro antimicrobial activity against Staphylococcus aureus 285; type: functional; details: not given

SMILES | MIC [µg/mL]
CO/N=C(/C(=O)NC1C(=O)N2C(C(=O)[O-])=C(C[n+]3cccc4c3CCC4)CSC12)c1csc(N)n1 (stereo unspecified) | 0.781 (≈ 1.52 µM)

system: Escherichia coli; experiment: In vitro antimicrobial activity against Escherichia coli DC 0; type: functional; details: not given

SMILES | MIC [µg/mL]
CO/N=C(/C(=O)NC1C(=O)N2C(C(=O)[O-])=C(C[n+]3cccc4c3CCC4)CSC12)c1csc(N)n1 (stereo unspecified) | 0.013 (≈ 0.0253 µM)

system: Escherichia coli; experiment: In vitro antimicrobial activity against Escherichia coli 1507E; type: functional; details: not given

SMILES | MIC [µg/mL]
CO/N=C(/C(=O)NC1C(=O)N2C(C(=O)[O-])=C(C[n+]3cccc4c3CCC4)CSC12)c1csc(N)n1 (stereo unspecified) | 0.025 (≈ 0.0486 µM)

system: Escherichia coli; experiment: In vitro antimicrobial activity against Escherichia coli DC 2; type: functional; details: not given

SMILES | MIC [µg/mL]
CO/N=C(/C(=O)NC1C(=O)N2C(C(=O)[O-])=C(C[n+]3cccc4c3CCC4)CSC12)c1csc(N)n1 (stereo unspecified) | 0.013 (≈ 0.0253 µM)

system: Escherichia coli; experiment: In vitro antimicrobial activity against Escherichia coli 055; type: functional; details: not given

SMILES | MIC [µg/mL]
CO/N=C(/C(=O)NC1C(=O)N2C(C(=O)[O-])=C(C[n+]3cccc4c3CCC4)CSC12)c1csc(N)n1 (stereo unspecified) | 0.025 (≈ 0.0486 µM)

system: Klebsiella aerogenes; experiment: In vitro antimicrobial activity against Klebsiella aerogenes 1522 E; type: functional; details: not given

SMILES | MIC [µg/mL]
CO/N=C(/C(=O)NC1C(=O)N2C(C(=O)[O-])=C(C[n+]3cccc4c3CCC4)CSC12)c1csc(N)n1 (stereo unspecified) | 0.025 (≈ 0.0486 µM)

system: Streptococcus pyogenes; experiment: In vitro antimicrobial activity against Streptococcus pyogenes SG 511; type: functional; details: not given

SMILES | MIC [µg/mL]
CO/N=C(/C(=O)NC1C(=O)N2C(C(=O)[O-])=C(C[n+]3cccc4c3CCC4)CSC12)c1csc(N)n1 (stereo unspecified) | 0.391 (≈ 0.76 µM)

system: Salmonella typhimurium; experiment: In vitro antimicrobial activity against Salmonella Typhimurium; type: functional, Salmonella enterica subsp. enterica serovar Typhimurium; details: Salmonella enterica

SMILES | MIC [µg/mL]
CO/N=C(/C(=O)NC1C(=O)N2C(C(=O)[O-])=C(C[n+]3cccc4c3CCC4)CSC12)c1csc(N)n1 (stereo unspecified) | 0.025 (≈ 0.0486 µM)

system: Enterococcus faecium; experiment: In vitro antimicrobial activity against Streptococcus faecium MD 8b; type: functional; details: not given

SMILES | MIC [µg/mL]
CO/N=C(/C(=O)NC1C(=O)N2C(C(=O)[O-])=C(C[n+]3cccc4c3CCC4)CSC12)c1csc(N)n1 (stereo unspecified) | 1.56 (≈ 3.04 µM)

system: Klebsiella oxytoca; experiment: In vitro antimicrobial activity against Klebsiella oxytoca 1082; type: functional; details: not given

SMILES | MIC [µg/mL]
CO/N=C(/C(=O)NC1C(=O)N2C(C(=O)[O-])=C(C[n+]3cccc4c3CCC4)CSC12)c1csc(N)n1 (stereo unspecified) | 1.56 (≈ 3.04 µM)

system: Enterobacter cloacae; experiment: In vitro antimicrobial activity against Enterobacter 1321 E; type: functional; details: not given

SMILES | MIC [µg/mL]
CO/N=C(/C(=O)NC1C(=O)N2C(C(=O)[O-])=C(C[n+]3cccc4c3CCC4)CSC12)c1csc(N)n1 (stereo unspecified) | 0.013 (≈ 0.0253 µM)

Source: ChEMBL document CHEMBL1132901, “Synthesis and structure-activity relationships of quaternary ammonium cephalosporins with 3-pyrazolylpyridinium derivatives” (2000)
